For the data set the following is noted: Pendant drop shape.

Usually surface tension liquid-gas stands for the work needed to enlarge the surface of a liquid by unit area.

± gives the expanded uncertainty stated by the source.

As for `CCCC[n+]1ccn(C)c1.O=S(=O)([N-]S(=O)(=O)C(F)(F)F)C(F)(F)F`, the surface tension liquid-gas runs as follows: (298.2 K) 33.35 ± 0.38 mN/m; (308.2 K) 32.85 ± 0.37 mN/m; (318.2 K) 32.25 ± 0.37 mN/m; (328.2 K) 31.69 ± 0.36 mN/m; (338.2 K) 31.14 ± 0.35 mN/m; (343.2 K) 30.76 ± 0.35 mN/m.

As to `CCCCn1cc[n+](C)c1.F[P-](F)(F)(F)(F)F` [1-butyl-3-methylimidazolium hexafluorophosphate], the surface tension liquid-gas is, setting by setting: (298.1 K) 43.81 ± 0.47 mN/m; (303.2 K) 43.44 ± 0.47 mN/m; (313.1 K) 42.72 ± 0.46 mN/m; (323.1 K) 42.19 ± 0.46 mN/m; (333.1 K) 41.61 ± 0.45 mN/m; (343.7 K) 41.07 ± 0.45 mN/m.

As for `CCCCn1cc[n+](C)c1.F[B-](F)(F)F` [1-butyl-3-methylimidazolium tetrafluoroborate], the surface tension liquid-gas (298 K) is listed as 45.44 ± 0.49 mN/m; the surface tension liquid-gas (307.9 K) stood at 44.57 ± 0.48 mN/m; the surface tension liquid-gas (317.9 K) turned out to be 43.91 ± 0.47 mN/m; the surface tension liquid-gas (328.4 K) amounted to 43.15 ± 0.47 mN/m; the surface tension liquid-gas (338.4 K) is given as 42.49 ± 0.46 mN/m; the surface tension liquid-gas (343.1 K) worked out at 42.17 ± 0.46 mN/m.

Take `CCCCn1cc[n+](C)c1.O=S(=O)([O-])C(F)(F)F` [1-butyl-3-methylimidazolium trifluoromethanesulfonate]: the surface tension liquid-gas reads like this: (298.1 K) 35.86 ± 0.4 mN/m; (307.9 K) 35.29 ± 0.4 mN/m; (318 K) 34.95 ± 0.4 mN/m; (328.1 K) 34.64 ± 0.41 mN/m; (338.3 K) 34.3 ± 0.38 mN/m.

`CCn1cc[n+](C)c1.Cc1ccc(S(=O)(=O)[O-])cc1` [1-ethyl-3-methylimidazolium 4-methylbenzenesulfonate]: the surface tension liquid-gas was 45.2 ± 0.6 mN/m (308.1 K); 44.2 ± 0.6 mN/m (318 K); 43.6 ± 0.6 mN/m (328.5 K); 43 ± 0.6 mN/m (338.3 K); 42.7 ± 0.6 mN/m (343.2 K).

`CC(=O)[O-].CCn1cc[n+](C)c1` [1-ethyl-3-methylimidazolium acetate]: the surface tension liquid-gas by setting is: (298.1 K) 47.06 ± 0.5 mN/m; (308.2 K) 46.53 ± 0.5 mN/m; (318.2 K) 45.89 ± 0.49 mN/m; (328.2 K) 45.33 ± 0.48 mN/m; (338.3 K) 44.74 ± 0.48 mN/m.

As to `CCn1cc[n+](C)c1.N#CN=C=[N-]` [1-ethyl-3-methylimidazolium dicyanamide], the surface tension liquid-gas is listed as 57.5 ± 0.8 mN/m (298.3 K); 56.6 ± 1 mN/m (308.2 K); 56.4 ± 0.8 mN/m (318.3 K); 56 ± 0.7 mN/m (328.2 K); 55 ± 0.8 mN/m (338.5 K); 54.9 ± 0.8 mN/m (343.4 K).

For `CCn1cc[n+](C)c1.COP(=O)([O-])OC` [1-ethyl-3-methylimidazolium dimethylphosphate], the surface tension liquid-gas runs as follows: (308.2 K) 45.3 ± 0.9 mN/m; (318 K) 44.7 ± 0.8 mN/m; (328.7 K) 44.4 ± 0.7 mN/m; (338.6 K) 43.8 ± 0.7 mN/m; (343.5 K) 43.3 ± 0.6 mN/m.

`CCn1cc[n+](C)c1.CS(=O)(=O)[O-]` [1-ethyl-3-methylimidazolium methanesulfonate]: the surface tension liquid-gas is listed as 50.9 ± 0.8 mN/m (298.5 K); 50.3 ± 0.8 mN/m (308 K); 49.7 ± 0.8 mN/m (317.9 K); 49.1 ± 0.8 mN/m (328.1 K); 48.1 ± 0.6 mN/m (338.1 K); 47.7 ± 0.6 mN/m (342.7 K).

Consider `CCn1cc[n+](C)c1.CO[PH](=O)[O-]` [1-ethyl-3-methylimidazolium methyl phosphonate], for which the surface tension liquid-gas reads like this: (298.2 K) 49 ± 0.6 mN/m; (308.4 K) 48.3 ± 0.6 mN/m; (318 K) 47.9 ± 0.8 mN/m; (328.6 K) 47.2 ± 0.6 mN/m; (338.5 K) 46.7 ± 0.6 mN/m; (343.1 K) 46.3 ± 0.5 mN/m.

As to `CCn1cc[n+](C)c1.N#C[S-]` [1-ethyl-3-methylimidazolium thiocyanate], the surface tension liquid-gas (298.2 K) was 53.3 ± 1 mN/m; the surface tension liquid-gas (308.2 K) is 52.3 ± 1 mN/m; the surface tension liquid-gas (318.2 K) is reported as 51.8 ± 0.9 mN/m; the surface tension liquid-gas (328.2 K) is recorded as 50.5 ± 0.8 mN/m; the surface tension liquid-gas (338.3 K) is reported as 49.8 ± 1.1 mN/m; the surface tension liquid-gas (343.2 K) is reported as 49.4 ± 0.8 mN/m.

Consider `CCn1cc[n+](C)c1.O=S(=O)([O-])C(F)(F)F` [1-ethyl-3-methylimidazolium trifluoromethanesulfonate], for which the surface tension liquid-gas reads like this: (298.2 K) 41.3 ± 0.5 mN/m; (308.1 K) 41 ± 0.45 mN/m; (318.1 K) 40.48 ± 0.44 mN/m; (328.4 K) 39.9 ± 0.7 mN/m; (338.3 K) 39.5 ± 0.7 mN/m; (344.9 K) 39.3 ± 0.43 mN/m.

The values above are taken from the NIST ThermoML archive (doi:10.1016/j.jct.2012.03.008).
